Results on one compound are retold here after patent publication US11583502B2, “Pharmaceutical compositions comprising a thyroid hormone beta agonist, method of use and method making thereof” (GANNEX PHARMA CO., LTD., priority 2020, dated 2023).

Bounds are passed on as bounds.

The format of series [1] is physicochemical. Conditions: 3.5 hours.
A short description of series [2]: Solubility of the compound of Formula (I) in media without surfactant. It counts as physicochemical. From the text:
The compound of Formula (I), however, is a lipophilic drug that is highly insoluble in water. […] The very low solubility limits its use in research and development as a drug candidate.
For drugs with poor solubility, in vitro dissolution evaluation is a simple and effective method for predicting and comparing dissolution in vivo. In vitro dissolution evaluation is also an important criterion for screening prescription drugs for quality control. […] Therefore, in order to completely dissolve the compound in a conventional 900 ml medium for a 10 mg/unit dose formulation, it is necessary to increase the solubility of the compound to at least 11.11 μg/ml. It would be difficult to achieve such a target with conventional solubilization technology.

Consider `Cc1cc(OC[P@@]2(=O)OCC[C@@H](c3cccc(Cl)c3)O2)cc(C)c1Cc1ccc(O)c(C(C)C)c1` [compound of Formula (I)], for which the “drug undergoing degradation reactions” value in series [1] amounted to 10.2%. Moreover, the solubility was less than 0.5 ng/mL in series [2] (aqueous buffer, hydrochloric acid solution, buffer, and water without surfactant at 37° C. and pH 1.0˜9.0); less than 0.5 ng/mL in series [2] (medium containing no surfactant).

For orientation: solubility means how much of the substance goes into solution per volume. Higher therefore signals much dissolved substance.
